Measurements as given in ChEMBL document CHEMBL1201862, “PubChem BioAssay data set” (2004).
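Five concentrations, 48 hours, 96-well plates. At the GI50, growth is halved.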 Calls of active or inactive are those of the source. No stated cut-off is given here; in the data, active = GI50 up to about 1.1 µM and inactive = higher.

How the values were obtained:
Test in all cases: growth of human tumour cells (NCI), 48 h
ACHN = system: ACHN
CCRF-CEM = system: CCRF-CEM
DU-145 = system: DU-145
HCC 2998 = system: HCC 2998
IGROV-1 = system: IGROV-1
M14 = system: M14
MDA-MB-231 = system: MDA-MB-231
MDA-MB-435 = system: MDA-MB-435
NCI-H23 = system: NCI-H23
NCI-H460 = system: NCI-H460
PC-3 = system: PC-3
SF-539 = system: SF-539
SK-MEL-28 = system: SK-MEL-28
SK-MEL-5 = system: SK-MEL-5
SK-OV-3 = system: SK-OV-3
SN12C = system: SN12C
SNB-19 = system: SNB-19
SR = system: SR
SW-620 = system: SW-620
UO-31 = system: UO-31

Row | SMILES | GI50 (ACHN) | GI50 (CCRF-CEM) | GI50 (DU-145) | GI50 (HCC 2998) | GI50 (IGROV-1) | GI50 (M14) | GI50 (MDA-MB-231) | GI50 (MDA-MB-435) | GI50 (NCI-H23) | GI50 (NCI-H460) | GI50 (PC-3) | GI50 (SF-539) | GI50 (SK-MEL-28) | GI50 (SK-MEL-5) | GI50 (SK-OV-3) | GI50 (SN12C) | GI50 (SNB-19) | GI50 (SR) | GI50 (SW-620) | GI50 (UO-31)
1 | O=C1/C(=C/c2ccc(O)c(O)c2)CCC/C1=C\c1ccc(O)c(O)c1 | 2.69 µM (inactive) | 1.52 µM (inactive) | 4.5 µM (inactive) | 4.12 µM (inactive) | 4.05 µM (inactive) | 4.8 µM (inactive) | 5.14 µM (inactive) | 2.91 µM (inactive) | 2.76 µM (inactive) | 3.45 µM (inactive) | 3.98 µM (inactive) | 2.41 µM (inactive) | 3.94 µM (inactive) | 1.67 µM (inactive) | 7.96 µM (inactive) | 4.41 µM (inactive) | 7.08 µM (inactive) | 1.58 µM (inactive) | 2.45 µM (inactive) | 2 µM (inactive)
2 | C[C@@H](Cl)[C@H]1CCCN(Cc2ccc(Br)cc2)C1 | > 12.5 µM (inactive) | > 12.5 µM (inactive) | > 12.5 µM (inactive) | > 12.5 µM (inactive) | > 12.5 µM (inactive) | > 12.5 µM (inactive) | > 12.5 µM (inactive) | > 12.5 µM (inactive) | > 12.5 µM (inactive) | > 12.5 µM (inactive) | > 12.5 µM (inactive) | > 12.5 µM (inactive) | > 12.5 µM (inactive) | > 12.5 µM (inactive) | > 12.5 µM (inactive) |  | > 12.5 µM (inactive) | > 12.5 µM (inactive) | > 12.5 µM (inactive) | > 12.5 µM (inactive)
3 | CO[C@H]1C[C@H](O[C@H]2CC[C@]3(C=O)[C@H]4CC[C@]5(C)[C@@H](C6=CC(=O)OC6)CC[C@]5(O)[C@@H]4CC[C@]3(O)C2)O[C@H](C)[C@H]1O[C@@H]1O[C@H](CO[C@@H]2O[C@H](CO)[C@@H](O)[C@H](O)[C@H]2O)[C@@H](O)[C@H](O)[C@H]1O | 0.0186 µM (active) | > 100 µM (inactive) | 0.0156 µM (active) | 0.158 µM (active) | 0.0259 µM (active) | 0.147 µM (active) | 0.355 µM (active) | 0.166 µM (active) | 0.016 µM (active) | < 0.0132 µM (active) | 0.038 µM (active) | 0.0353 µM (active) | 0.349 µM (active) | 0.037 µM (active) | 0.0543 µM (active) | 0.0289 µM (active) | 0.186 µM (active) | 0.0188 µM (active) | 0.0593 µM (active) | 0.0405 µM (active)
4 | COc1cccc2c1C(=O)c1c(O)c3c(c(O)c1C2=O)C[C@@](O)(C(C)=O)C[C@@H]3OC1CC(N(Cc2ccccc2)Cc2ccccc2)C(O)C(C)O1 (stereo partly specified) | 0.51 µM (active) | 2.43 µM (inactive) | 14.1 µM (inactive) | 29.4 µM (inactive) | 9.55 µM (inactive) | 2.27 µM (inactive) | 10.9 µM (inactive) | 4.53 µM (inactive) | 18.6 µM (inactive) | 0.653 µM (active) | 6.61 µM (inactive) | 10.9 µM (inactive) | 32.8 µM (inactive) | 14.6 µM (inactive) | 34 µM (inactive) | 8.09 µM (inactive) | 21.7 µM (inactive) | 0.101 µM (active) | 4.69 µM (inactive) | 15 µM (inactive)
5 | O=C(NCCCl)N(O)C(=O)Nc1ccccc1 | > 100 µM (inactive) | > 100 µM (inactive) | 35.4 µM (inactive) | > 100 µM (inactive) | > 100 µM (inactive) | > 100 µM (inactive) | 67.8 µM (inactive) | > 100 µM (inactive) | > 100 µM (inactive) | > 100 µM (inactive) | > 100 µM (inactive) | > 100 µM (inactive) |  | 98.2 µM (inactive) | > 100 µM (inactive) | > 100 µM (inactive) | > 100 µM (inactive) | > 100 µM (inactive) | > 100 µM (inactive) | > 100 µM (inactive)
6 | Nc1c2ccccc2nc2c1ccc1ncccc12 | 5.38 µM (inactive) | 6.78 µM (inactive) | 28.2 µM (inactive) | 8.99 µM (inactive) | 12.9 µM (inactive) | 19.4 µM (inactive) | 20.8 µM (inactive) | 27.8 µM (inactive) | 17.4 µM (inactive) | 5.83 µM (inactive) | 16.3 µM (inactive) | 14.7 µM (inactive) | 33.7 µM (inactive) | 28.4 µM (inactive) | 30.5 µM (inactive) | 21.1 µM (inactive) | 36.8 µM (inactive) | 12.2 µM (inactive) | 11.7 µM (inactive) | 10.1 µM (inactive)
7 | Brc1ccc2[nH]cc([C@H]3CN[C@@H](c4c[nH]c5ccc(Br)cc45)CN3)c2c1 | 1.93 µM (inactive) | 2.22 µM (inactive) | 2.23 µM (inactive) | 1.69 µM (inactive) | 1.87 µM (inactive) | 1.81 µM (inactive) | 1.62 µM (inactive) | 1.77 µM (inactive) | 1.6 µM (inactive) | 2.36 µM (inactive) | 1.88 µM (inactive) | 2 µM (inactive) | 8.05 µM (inactive) | 2.56 µM (inactive) | 2.49 µM (inactive) | 2.91 µM (inactive) | 2.83 µM (inactive) | 1.92 µM (inactive) | 2.51 µM (inactive) | 1.91 µM (inactive)
8 | CN1c2ccc(Cl)cc2C(=O)NC1c1ccc([N+](=O)[O-])s1 (stereo unspecified) | 19.4 µM (inactive) | 39.5 µM (inactive) | 19.3 µM (inactive) | 16.1 µM (inactive) | 15.4 µM (inactive) | 15.6 µM (inactive) | 16.2 µM (inactive) | 16.3 µM (inactive) |  | 16.1 µM (inactive) | 16 µM (inactive) | 18.1 µM (inactive) | 18.7 µM (inactive) | 16.1 µM (inactive) | 20.2 µM (inactive) | 16.6 µM (inactive) | 30.1 µM (inactive) | 14.6 µM (inactive) | 32.7 µM (inactive) | 12.1 µM (inactive)
9 | O=P1(C(O)c2ccccc2)N(Cc2ccccc2)[C@@H]2CCCC[C@H]2N1Cc1ccccc1 (stereo partly specified) | 30.8 µM (inactive) | 34.8 µM (inactive) | 35 µM (inactive) | 20 µM (inactive) | 28.6 µM (inactive) | 24.8 µM (inactive) | 21.3 µM (inactive) | 23.2 µM (inactive) | 47.9 µM (inactive) | 30.2 µM (inactive) | 24.5 µM (inactive) | 21.5 µM (inactive) | > 100 µM (inactive) | 30.3 µM (inactive) | 58.2 µM (inactive) | 20.9 µM (inactive) | 56.2 µM (inactive) | 24.3 µM (inactive) | 33.9 µM (inactive) | 33 µM (inactive)
10 | O=C1NC2(CCN(CCc3ccccc3)CC2)Oc2ccccc21 | 84.7 µM (inactive) | 49.3 µM (inactive) | > 100 µM (inactive) | 62.1 µM (inactive) | > 100 µM (inactive) | 18.5 µM (inactive) | 88.3 µM (inactive) | 53.5 µM (inactive) | 64 µM (inactive) | > 100 µM (inactive) | 33.9 µM (inactive) | > 100 µM (inactive) | 73.6 µM (inactive) | 14.5 µM (inactive) | > 100 µM (inactive) | 99.5 µM (inactive) | 85.3 µM (inactive) | 52.7 µM (inactive) | > 100 µM (inactive) | 49 µM (inactive)
11 | O=C(O)c1cc(Cl)cc2c1NC1(N2)C(=O)Nc2ccccc21 (stereo unspecified) | > 100 µM (inactive) | > 100 µM (inactive) | > 100 µM (inactive) | > 100 µM (inactive) | 33.3 µM (inactive) | > 100 µM (inactive) | > 100 µM (inactive) | > 100 µM (inactive) | > 100 µM (inactive) | > 100 µM (inactive) | > 100 µM (inactive) | > 100 µM (inactive) | > 100 µM (inactive) | > 100 µM (inactive) | > 100 µM (inactive) | > 100 µM (inactive) | > 100 µM (inactive) | 65.8 µM (inactive) | 73.6 µM (inactive) | > 100 µM (inactive)
12 | COc1ccc(C(SC2C(O)C(CO)OC2n2ccc(N)nc2=O)(c2ccccc2)c2ccc(OC)cc2)cc1 (stereo unspecified) | 31.3 µM (inactive) | 20.2 µM (inactive) | 18.5 µM (inactive) | 17.1 µM (inactive) | 21.9 µM (inactive) | 12.7 µM (inactive) | 16 µM (inactive) | 10.9 µM (inactive) | 22.2 µM (inactive) | 12.1 µM (inactive) | 16.4 µM (inactive) | 18.7 µM (inactive) | 27.4 µM (inactive) | 12.9 µM (inactive) | 12.2 µM (inactive) | 13.3 µM (inactive) | 16 µM (inactive) | 12.4 µM (inactive) | 23.6 µM (inactive) | 18.5 µM (inactive)
13 | COC(OC)C1OC(CO)C(n2ccc(N)nc2=O)C1O (stereo unspecified) | > 100 µM (inactive) | > 100 µM (inactive) | > 100 µM (inactive) | > 100 µM (inactive) | > 100 µM (inactive) | > 100 µM (inactive) | > 100 µM (inactive) | > 100 µM (inactive) | > 100 µM (inactive) | > 100 µM (inactive) | > 100 µM (inactive) | > 100 µM (inactive) | > 100 µM (inactive) | > 100 µM (inactive) | > 100 µM (inactive) | > 100 µM (inactive) | > 100 µM (inactive) | > 100 µM (inactive) | > 100 µM (inactive) | > 100 µM (inactive)
14 | CC1=CC(c2ccccc2)n2c(nc3cc4ccccc4cc32)N1 (stereo unspecified) | > 100 µM (inactive) | > 100 µM (inactive) | > 100 µM (inactive) | > 100 µM (inactive) | > 100 µM (inactive) | > 100 µM (inactive) | > 100 µM (inactive) | > 100 µM (inactive) | > 100 µM (inactive) | > 100 µM (inactive) | > 100 µM (inactive) | > 100 µM (inactive) | > 100 µM (inactive) | > 100 µM (inactive) | > 100 µM (inactive) |  | > 100 µM (inactive) | 90.4 µM (inactive) | > 100 µM (inactive) | > 100 µM (inactive)
